Numbered stars: 1 amine (or outer) side, 2 acyl side, 3 side chain; on linkers, the order of the positions; unused ones are H or OH. Square brackets hold non-standard residues; d marks the D form. Peptide text beside a SMILES is read from it. * marks the point of attachment. X20 = O=C(CCCCCO[C@@H]1O[C@H](CO)[C@@H](O)[C@H](O)[C@H]1N[*:1])[*:2]; Phe(4-NO2) = N[C@@H](Cc1ccc([N+](=O)[O-])cc1)C(=O)O; Quinoline3carbonyl = O=C(c1cnc2ccccc2c1)*; Benzenesulfonyl = O=S(=O)(c1ccccc1)*; Cha = N[C@@H](CC1CCCCC1)C(=O)O; X15 = O=S(=O)(c1cccc2cccnc12)*; Morpholide = C1CN(*)CCO1; Piperidide = C1CCN(*)CC1; Pyrrolidide = C1CCN(*)C1; NHDecyl = CCCCCCCCCCN*; PhAc = O=C(Cc1ccccc1)*; Bz = O=C(c1ccccc1)*; NHNH2 = NN*

In one assay the target is VLA-4 (Homo sapiens, UniProt P05556+P13612). Nature of the assay: cell-based. The class given is cell-based. Further details: host or cells: Jurkat (human T lymphoblastic line).
VLA-4, sequence (P13612 34-1032): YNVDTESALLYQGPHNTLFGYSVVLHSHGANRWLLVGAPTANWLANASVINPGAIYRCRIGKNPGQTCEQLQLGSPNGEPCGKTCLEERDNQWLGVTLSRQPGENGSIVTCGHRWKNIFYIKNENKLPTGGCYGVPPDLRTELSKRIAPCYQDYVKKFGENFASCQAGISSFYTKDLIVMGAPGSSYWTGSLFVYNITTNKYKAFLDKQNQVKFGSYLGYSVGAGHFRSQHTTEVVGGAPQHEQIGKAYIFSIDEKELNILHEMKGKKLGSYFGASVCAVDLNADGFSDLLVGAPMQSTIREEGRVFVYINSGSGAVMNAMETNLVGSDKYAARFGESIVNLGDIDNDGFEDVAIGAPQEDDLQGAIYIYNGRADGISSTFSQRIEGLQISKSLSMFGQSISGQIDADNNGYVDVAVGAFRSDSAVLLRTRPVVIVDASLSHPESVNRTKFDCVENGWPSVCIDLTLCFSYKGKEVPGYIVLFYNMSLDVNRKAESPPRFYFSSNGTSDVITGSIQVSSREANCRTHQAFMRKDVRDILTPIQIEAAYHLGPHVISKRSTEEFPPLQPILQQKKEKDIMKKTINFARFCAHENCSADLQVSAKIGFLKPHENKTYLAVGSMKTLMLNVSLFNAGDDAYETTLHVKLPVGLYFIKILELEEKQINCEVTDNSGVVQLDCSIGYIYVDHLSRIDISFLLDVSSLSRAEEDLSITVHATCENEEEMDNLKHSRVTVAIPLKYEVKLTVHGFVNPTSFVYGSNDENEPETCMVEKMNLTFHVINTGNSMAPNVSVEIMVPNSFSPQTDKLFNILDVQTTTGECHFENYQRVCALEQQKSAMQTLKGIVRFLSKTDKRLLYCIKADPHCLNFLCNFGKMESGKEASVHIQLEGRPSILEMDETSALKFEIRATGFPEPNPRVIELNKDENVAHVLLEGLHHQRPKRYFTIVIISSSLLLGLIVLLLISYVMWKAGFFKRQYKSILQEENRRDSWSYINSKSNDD
VLA-4, sequence (P05556 21-798): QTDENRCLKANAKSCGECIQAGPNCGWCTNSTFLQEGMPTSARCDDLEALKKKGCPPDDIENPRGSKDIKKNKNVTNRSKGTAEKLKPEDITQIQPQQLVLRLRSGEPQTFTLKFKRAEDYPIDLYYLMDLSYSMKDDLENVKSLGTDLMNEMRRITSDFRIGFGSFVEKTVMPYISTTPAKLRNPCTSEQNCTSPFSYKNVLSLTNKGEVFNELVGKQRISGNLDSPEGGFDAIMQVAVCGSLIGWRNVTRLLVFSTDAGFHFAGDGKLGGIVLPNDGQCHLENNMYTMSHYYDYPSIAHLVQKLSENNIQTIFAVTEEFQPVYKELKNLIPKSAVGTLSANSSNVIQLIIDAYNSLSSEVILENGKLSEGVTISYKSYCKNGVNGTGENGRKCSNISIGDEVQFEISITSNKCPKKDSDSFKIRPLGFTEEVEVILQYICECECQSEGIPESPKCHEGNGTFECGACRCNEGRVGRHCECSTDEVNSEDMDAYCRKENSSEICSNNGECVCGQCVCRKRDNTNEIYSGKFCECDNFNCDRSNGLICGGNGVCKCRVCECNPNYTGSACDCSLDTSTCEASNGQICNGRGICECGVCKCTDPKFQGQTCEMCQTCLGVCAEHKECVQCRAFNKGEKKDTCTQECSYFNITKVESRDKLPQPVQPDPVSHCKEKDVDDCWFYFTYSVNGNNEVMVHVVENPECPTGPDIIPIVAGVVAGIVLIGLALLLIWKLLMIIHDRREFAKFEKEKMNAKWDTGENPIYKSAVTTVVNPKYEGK
Conditions: not given
How it is done:
Binding inhibition is measured here as a concentration of peptide that inhibits one-half the binding between a standard number of Jurkat cells and a standard amount of CS-1 peptide bound to the surface of a microtiter plate well. Those concentrations are conveniently expressed as IC50 values, smaller numbers indicating a lower concentration required to inhibit 50 percent binding and therefore greater potency. Further specifics of this assay are provided hereinafter.
Jurkat cells (ATCC TIB 152), a human T lymphoblastic line, labeled with ^51 chromium were used to assay in vitro binding inhibition provided by various peptides discussed herein.
The plates were prepared as follows: The 25-mer CS-1 peptide (SEQ ID NO:1) dissolved at 0.5-1 μg/ml in a buffer of 0.1M NaHCO3 at pH 9.5 that also contained 10 μg/ml of bovine serum albumin (BSA) or a conjugate of the CS-1 peptide linked to ovalbumin (CS-1-OVA) dissolved at 1-2.5 μg/ml in the same buffer was used as the substrate. Each well of the microtiter plates was coated with 50 μl of substrate or buffer alone for controls. The wells were permitted to dry out completely and were then rinsed twice with PBS at pH 7.4. Non-specific binding sites of each well were then blocked using 200 μl per well of RPMI/1 percent BSA for two hours at room temperature. Both solid phase-affixed substrates provided similar results.
Jurkat cells (3-5×10^6 cells) were placed into a 15 ml Falcon™ round-bottom tube with a cap. The tube was centrifuged, and the extra medium was then removed.
Two hundred microliters of a ^51 Cr labeling solution were added to the centrifuged cells and maintained in contact with the cells for 90-120 minutes in a warm room. This procedure typically provides about 50,000-100,000 cpm/well with about 80-100 percent cell viability. Longer contact times provide a greater amount of labeling but lower cell viability.
The labeled cells are washed with (i) complete medium, (ii) 1 mM EDTA/PBS and then (iii) RPM1/1 percent BSA free of serum components. The cells are centrifuged after each washing. The cells are finally resuspended in serum-free RPMI/1 percent BSA at a concentration of 1×10^6 viable cells/ml, which provides a concentration that is diluted by one-half in the assay.
Inhibitor peptides are prepared as stock solutions at 20 mg/ml in DMSO in 1.5 ml cryogenic screwcap vials, and were stored at -70° C. Using Flow™ round-bottom or V-bottom microtiter plates, the inhibitor peptides were prepared at twice the assay concentration in RPMI/1 percent BSA at 60 μl well.
Four initial dilutions were typically used.
The ^51 Cr-labeled cells (1×10^6 cells at 60 μl/well) were then admixed with the diluted peptide solutions. The admixtures were maintained at room temperature (about 22° C.) for 30 minutes.
One hundred microliters of each inhibitor peptide/cell admixture were transferred to the substrate-coated wells. This was done in triplicate for each dilution. The resulting plates were incubated for 30 minutes at 37° C. and then washed gently three times with RPMI/1 percent BSA at 200 μl/well. Binding was observed microscopically, particularly after the second wash.
The bound cells were then lysed by the addition of a 0.5 percent solution of sodium dodecylsulfate in water at 100 μ/l well. The resulting solutions were then processed for counting and calculation of IC50 values following usual procedures. Appropriate positive and negative controls were used with each plate so that the results of separate assays could be normalized and compared.
The data of Table 1 are so normalized.
`CC(C)C[C@H](NC(=O)c1ccncc1)C(=O)N[C@@H](CC(=O)O)C(=O)N[C@@H](Cc1ccc(O)cc1)C(=O)N1CCCCC1`: the “RELATIVE POTENCY (relative peptide inhibition of VLA-4 binding CS-1)” value was found to be 24. On to `CC(C)C[C@H](NS(=O)(=O)c1ccccc1)C(=O)N[C@@H](CC(=O)O)C(=O)N[C@@H](Cc1ccccc1)C(=O)N1CCC[C@@H]1C(N)=O` [X L D F p phenylsulfonyl amide] (Benzenesulfonyl-LDF[dP]-NH2), for which the “RELATIVE POTENCY (relative peptide inhibition of VLA-4 binding CS-1)” value came out at 0. Take `CCC(C)CC(=O)N[C@@H](CC(C)C)C(=O)N[C@@H](CC(=O)O)C(=O)N[C@H](C(=O)N1CCC[C@@H]1C(N)=O)C(C)C` (stereo partly drawn) [X L D V p 3-methylvaleroyl amide]: the “RELATIVE POTENCY (relative peptide inhibition of VLA-4 binding CS-1)” value amounted to 3. Same read-out and setting: next, `CC(C)C[C@H](NC(=O)C12CC3CC(CC(C3)C1)C2)C(=O)N[C@@H](CC(=O)O)C(=O)N[C@H](C(=O)N1CCC[C@@H]1C(N)=O)C(C)C` [X L D V p adamantanecarbonyl amide]: 1; `CC(C)C[C@H](NC(=O)C(C)(C)C)C(=O)N[C@@H](CC(=O)O)C(=O)N[C@H](C(=O)N1CCCC1C(N)=O)C(C)C` (single isomer, unassigned) [X L D V P pivaloyl amide]: 20.

Turning to `Cc1cccc(C(=O)N[C@@H](CC(C)C)C(=O)N[C@@H](CC(=O)O)C(=O)N[C@H](C(=O)N2CCC[C@@H]2C(N)=O)C(C)C)c1C` [X L D V p 2,3-dimethylbenzoyl amide], the “RELATIVE POTENCY (relative peptide inhibition of VLA-4 binding CS-1)” value was 9. Consider `CC(C)C[C@H](NC(=O)c1ccc2ccccc2c1)C(=O)N[C@@H](CC(=O)O)C(=O)N[C@H](C(=O)N1CCC[C@@H]1C(N)=O)C(C)C` [X L D V p 2-naphthoyl amide], for which the “RELATIVE POTENCY (relative peptide inhibition of VLA-4 binding CS-1)” value is recorded as 1.

With `CC(=O)N[C@@H](CC(C)C)C(=O)N[C@@H](CC(=O)O)C(=O)N[C@H](C(N)=O)C(C)C` [L D V acetyl amide, reference compound] (Ac-Leu-Asp-Val-NH2), the “RELATIVE POTENCY (relative peptide inhibition of VLA-4 binding CS-1)” value was 1.

On to `CC(C)C[C@H](NS(=O)(=O)c1cccc2cccnc12)C(=O)N[C@@H](CC(=O)O)C(=O)N[C@@H](Cc1ccccc1)C(=O)N1CCC[C@@H]1C(N)=O` [X L D F p 8-quinolinesulfonyl amide] (X15-LDF[dP]-NH2), for which the “RELATIVE POTENCY (relative peptide inhibition of VLA-4 binding CS-1)” value worked out at 3. `Cc1ccc(C(=O)N[C@@H](CC(C)C)C(=O)N[C@@H](CC(=O)O)C(=O)N[C@H](C(=O)N2CCC[C@@H]2C(N)=O)C(C)C)cc1C` [X L D V p 3,4-dimethylbenzoyl amide]: the “RELATIVE POTENCY (relative peptide inhibition of VLA-4 binding CS-1)” value is reported as 8. Still for that read-out and setting: with `CC(C)C[C@@H](C(=O)N[C@@H](CC(=O)O)C(=O)N[C@@H](Cc1ccccc1)C(=O)N1CCCCC1)N1C(=O)NC(c2ccccc2)C1=O` (stereo partly drawn) the figure was 34; with `CC(C)C[C@H](NC(=O)[C@H](N)Cc1ccccc1)C(=O)N[C@@H](CC(=O)O)C(=O)N[C@H](C(=O)N1CCC[C@@H]1C(=O)O)C(C)C` [f L D V p free amine free acid] (H-[dF]LDV[dP]-OH), 0; with `CC(C)C[C@H](NC(=O)c1cnc2ccccc2c1)C(=O)N[C@@H](CC(=O)O)C(=O)N[C@@H](Cc1ccccc1)C(=O)N1CCC[C@@H]1C(N)=O` [X L D F p 3-quinolinecarbonyl amide] (Quinoline3carbonyl-LDF[dP]-NH2), 56. On to `CC(=O)N[C@H]1[C@H](OCCCCCC(=O)N[C@@H](Cc2ccccc2)C(=O)N[C@@H](CC(C)C)C(=O)N[C@@H](CC(=O)O)C(=O)N[C@@H](CC(C)C)C(=O)N2CCCCC2)O[C@H](CO)[C@@H](O)[C@@H]1O` (Ac-[X20]FLDL-Piperidide), for which the “RELATIVE POTENCY (relative peptide inhibition of VLA-4 binding CS-1)” value is recorded as 41. For the compound `CC(C)C[C@H](NCc1ccccc1)C(=O)N[C@@H](CC(=O)O)C(=O)N[C@@H](Cc1ccccc1)C(=O)N1CCCCC1` [X L D F Z benzyl piperidinamide], the “RELATIVE POTENCY (relative peptide inhibition of VLA-4 binding CS-1)” value is 6.

The assay is the same for the next values; noted with them: normalized IC50 relative to standard peptide of SEQ ID NO:3 (=1); about one-tenth or less of the standard is assigned zero.
Regarding `CC(C)C[C@H](NC(=O)Cc1ccccc1)C(=O)N[C@@H](CC(=O)O)C(=O)N[C@@H](Cc1ccccc1)C(=O)N1CC(O)C(O)C1` (stereo partly drawn), the “RELATIVE POTENCY (relative peptide inhibition of VLA-4 binding CS-1)” value amounted to 194. For the compound `CC(C)C[C@H](NC(=O)Cc1ccccc1)C(=O)N[C@@H](CC(=O)O)C(=O)N[C@@H](CC(C)C)C(=O)N1CCOCC1` [X L D L Z phenylacetyl morpholinamide] (PhAc-Leu-Asp-Leu-Morpholide), the “RELATIVE POTENCY (relative peptide inhibition of VLA-4 binding CS-1)” value came to 291. As for `CC(C)C[C@H](NC(=O)Cc1ccccc1)C(=O)N[C@@H](CC(=O)O)C(=O)NC1CCCCN(CC(N)=O)C1=O` (stereo partly drawn), the “RELATIVE POTENCY (relative peptide inhibition of VLA-4 binding CS-1)” value amounted to 97. Take `CC(C)C[C@H](NC(=O)Cc1ccccc1)C(=O)N[C@@H](CC(=O)O)C(=O)NN` [X L D Z phenylacetyl hydrazide] (PhAc-Leu-Asp-NHNH2): the “RELATIVE POTENCY (relative peptide inhibition of VLA-4 binding CS-1)” value turned out to be 1. Still for that read-out and setting: with `CC(C)C[C@H](NC(=O)Cc1ccccc1)C(=O)N[C@@H](CC(=O)O)C(=O)N[C@@H](Cc1ccc([N+](=O)[O-])cc1)C(=O)N1CCC[C@@H]1C(N)=O` (PhAc-LD[Phe(4-NO2)][dP]-NH2) the figure was 40; with `CC(C)C[C@H](NC(=O)[C@H](CC(=O)O)NC(=O)Cc1ccccc1)C(=O)N[C@@H](Cc1ccccc1)C(=O)N1CCC[C@@H]1C(N)=O` [X D L F p phenylacetyl amide, N-phenylacetyl-Asp-Leu-Phe-D-Pro-NH2, reference compound] (PhAc-DLF[dP]-NH2), below 1. With `CC(C)C[C@H](NC(=O)Cc1ccccc1)C(=O)N[C@@H](CC(=O)O)C(=O)NC1Cc2ccccc2CN1` (stereo partly drawn), the “RELATIVE POTENCY (relative peptide inhibition of VLA-4 binding CS-1)” value is recorded as 3. For `CC(C)C[C@H](NC(=O)Cc1ccccc1)C(=O)N[C@@H](CC(=O)O)C(=O)N[C@@H](Cc1ccccc1)C(=O)N1CCCC1` [X L D F Z phenylacetyl pyrrolidinamide] (PhAc-Leu-Asp-Phe-Pyrrolidide), the “RELATIVE POTENCY (relative peptide inhibition of VLA-4 binding CS-1)” value is recorded as 250. As for `CC(C)C[C@H](NC(=O)Cc1ccccc1)C(=O)N[C@@H](CC(=O)O)C(=O)N[C@H](C(=O)N1CCC[C@@H]1C(N)=O)C(C)C` [X L D V p phenylacetyl amide, N-phenylacetyl-Leu-Asp-Val-D-Pro-NH2], the “RELATIVE POTENCY (relative peptide inhibition of VLA-4 binding CS-1)” value worked out at 106. As to `CC(C)C[C@H](NC(=O)Cc1ccccc1)C(=O)N[C@@H](CC(=O)O)C(=O)N[C@H]1Cc2ccccc2[C@H]2CCCCN2C1=O`, the “RELATIVE POTENCY (relative peptide inhibition of VLA-4 binding CS-1)” value is recorded as 50. As to `CC(C)C[C@H](NC(=O)Cc1ccccc1)C(=O)N[C@@H](CC(=O)O)C(=O)N[C@@H](CO)C(=O)N1CCC[C@@H]1C(N)=O` [X L D S p phenylacetyl amide] (PhAc-LDS[dP]-NH2), the “RELATIVE POTENCY (relative peptide inhibition of VLA-4 binding CS-1)” value was found to be 17. On to `CCCCCCCCCCNC(=O)[C@@H]1CCCN1C(=O)[C@H](Cc1ccccc1)NC(=O)[C@H](CC(=O)O)NC(=O)[C@H](CC(C)C)NC(=O)Cc1ccccc1` [X L D F P Z phenylacetyl decylamide] (PhAc-LDFP-NHDecyl), for which the “RELATIVE POTENCY (relative peptide inhibition of VLA-4 binding CS-1)” value was 2.

For the compound `CC(C)[C@H](NC(=O)[C@H](CC(=O)O)NC(=O)[C@H](CC1CCCCC1)NC(=O)c1ccccc1)C(=O)N1CCC[C@@H]1C(N)=O` (Bz-[Cha]DV[dP]-NH2), the “RELATIVE POTENCY (relative peptide inhibition of VLA-4 binding CS-1)” value amounted to 11. Consider `CC(C)C[C@H](NC(=O)Cc1ccccc1)C(=O)N[C@@H](CC(=O)O)C(=O)NC1CCN(C2CCCCC2)C1=O` (stereo partly drawn), for which the “RELATIVE POTENCY (relative peptide inhibition of VLA-4 binding CS-1)” value was 7.

As to `CC(C)C[C@H](NC(=O)Cc1ccccc1)C(=O)N[C@@H](CC(=O)O)C(=O)NCCN1CCOCC1`, the “RELATIVE POTENCY (relative peptide inhibition of VLA-4 binding CS-1)” value worked out at 13.

The values are drawn from patent US5688913A, “CS-1 peptidomimetics, compositions and methods of using the same” (Cytel Corporation, priority 1995, dated 1997).
